Results reported in patent publication US5374618A, “Calcitonin peptides, and gene related pharmaceutical compositions” (Celltech Limited, priority 1983, dated 1994).

Experiments:
[1] = test system: antibody raised against Tyr-(CGRP amino acids 25-37)-amide; test: Radioimmunoassay cross-reactivity with 125I-Tyr-(CGRP amino acids 25-37)-amide tracer; assay type: binding, rabbit; conditions: 1:12500 dilution of serum, 1800 cpm tracer, 400 μl assay
Protocol: Cells from a 500 ml culture were harvested and lysed in a lysozyme/sodium deoxycholate mixture (5 ml), then treated with DNase for 30 mins. at 5° C. (Emtage J. S. et al PNAS (1983), 80, p 3671-3675). […] Radioimmunoassay was carried out in 0.05M phosphate buffer pH 7.4 in a final volume of 400 ul (see Girgis, S. I. et al J. Endocrinol 78, 372-382). Antiserum was raised in rabbits, using the known techniques, against Tyr-(CGRP amino acids 25-37)-amide and conjugated to chick ovalbumin (Reichlin, M.1980, Meth.Enzymol 70 159-165) and against ^125 I Tyr-(CGRP amino acids 25-37)-amide tracer.
The tracer was iodinated using the Chloramine T method of Hunter and Greenwood.

[2] = test system: guinea-pig right atrial preparation; test: Rate and force of contraction of isolated guinea-pig right atrium; assay type: cell-based
Protocol: Male Dunkin Hartley guinea-pigs (280-400 g) were killed by cervical dislocation and exsanguinated. The heart was removed, the right atrium dissected out and mounted under 0.5 g tension in Krebs solution (mM): NaCl 118, KCl 4.7, CaCl2 2.5, KH2 PO4 1.18, NaHCO3 25, MgSO4 1.18 and glucose 11.1, at 34° C. bubbled with 95:5 02 :CO2. Atrial force and rate were measured isometrically by a Grass FT.03 transducer and recorded on a Grass polygraph. Single doses of either human or rat CGRP were given in a random order.

[3] = test system: pentobarbitone anaesthetised rat; test: Cardiovascular actions (mean arterial pressure, heart rate) after i.v. administration in anaesthetised rats; assay type: in vivo
Protocol: Groups of 4 to 6 male Sprague-Dawley rats (285-315 g) were anaesthetised with sodium pentobarbitone (60 mg Kg^-1 i.p.). The trachea, left carotid artery and left jugular vein were cannulated. Blood pressure was recorded from the carotid artery on a Grass polygraph via a Statham P23 ID pressure transducer and mean arterial pressure derived from the trace. Heart rate was measured by a tachograph (Grass model 7P4) triggered by the blood pressure signal. […] Purified rat CGRP was from the same source. All synthetic preparations were subject to mass spectrometry (M-Scan Ltd.) to confirm structure and purity before use. […] All compounds were administered intravenously except for mepyramine (s.c.). […] The peak fall in mean arterial pressure (MAP) and heart rate (HR) after 2 min was measured.
The mechanism of action of PDA-4 was not examined.

[4] = cumulative doses at 2 min intervals, anaesthetised rat

Question: With “rat CGRP: synthetic rat CGRP preparation from Peninsula Laboratories” as the molecule, how does the “cross-reaction with the antibody (displacement of tracer)” value (from here on “cross-reaction with the antibody”) [1] read?
Answer: recognises antigenic determinants

Question: What about the “potency relative to human CGRP at increasing rate (times more potent)” value ([2]; isolated right atrium) of the same molecule?
Answer: approximately 10 times

Question: What about the “potency relative to human CGRP in evoking increases in force” value ([2]; isolated right atrium) of the same molecule?
Answer: equipotent

Question: And the “increase in rate or force in presence of propranolol” value ([2]; propranolol)?
Answer: Neither the increase in rate or force produced by rat CGRP was blocked

Question: And the “fall in mean arterial pressure (MAP)” value [3, 4]?
Answer: dose-dependent fall in MAP

Question: And the “increase in heart rate (HR)” value [3, 4]?
Answer: increase in HR

Question: And the “dose representing a 50% decrease in blood pressure” value ([3]; pentobarbitone anaesthetised rat)?
Answer: 0.23 nmol/kg

Question: How did the “cross-reaction with the antibody” value [1] turn out when `CC(C)C[C@H](NC(=O)[C@H](CCCCN)NC(=O)CNC(=O)[C@H](CC(C)C)NC(=O)[C@@H](NC(=O)[C@@H]1CSSC[C@H](N)C(=O)N[C@@H](CO)C(=O)N[C@@H](CC(N)=O)C(=O)N[C@@H](CC(C)C)C(=O)N[C@@H](CO)C(=O)N[C@@H]([C@@H](C)O)C(=O)N1)C(C)C)C(=O)N[C@@H](CO)C(=O)N[C@@H](CCC(N)=O)C(=O)N[C@@H](CCC(=O)O)C(=O)N[C@@H](CC(C)C)C(=O)N[C@@H](Cc1c[nH]cn1)C(=O)N[C@@H](CCCCN)C(=O)N[C@@H](CC(C)C)C(=O)N[C@@H](CCC(N)=O)C(=O)N[C@H](C(=O)N[C@@H](Cc1ccc(O)cc1)C(=O)N1CCC[C@H]1C(=O)N[C@@H](CCCNC(=N)N)C(=O)N[C@H](C(=O)N[C@@H](CC(N)=O)C(=O)N[C@H](C(=O)NCC(=O)N[C@@H](CO)C(=O)NCC(=O)N[C@H](C(=O)N1CCC[C@H]1C(N)=O)[C@@H](C)O)[C@@H](C)O)[C@@H](C)O)[C@@H](C)O` [salmon calcitonin] was run?
Answer: does not cross-react

Question: How did the “cross-reaction with the antibody” value [1] turn out when “human calcitonin: human calcitonin, tested for cross-reaction in the radioimmunoassay” was run?
Answer: does not cross-react

Question: With “katacalcin: carboxy terminal peptide designated PDN-21 (Katacalcin) of the human calcitonin polyprotein (DMSSDLERDHRPHVSMPQNAN; Katacalcin; UniProt P01258 121-141, looked up)” as the molecule, how does the “cross-reaction with the antibody” value [1] read?
Answer: does not cross-react

Question: With “Tyr-CGRP (amino acids 1-8): tyrosinated fragment of human CGRP, amino acids 1 to 8 (ACDTATCV; Calcitonin gene-related peptide 1 N-terminal tyrosine added; UniProt P06881 83-90, looked up, fragment)” as the molecule, how does the “cross-reaction with the antibody” value [1] read?
Answer: does not cross-react
